Reference: patent US9156848B2, “Treating diabetes with dipeptidyl peptidase-IV inhibitors” (Merck Sharp & Dohme Corp., priority 2012, dated 2015)

How the values were obtained:
[1] = molecular target: dipeptidyl peptidase-IV enzyme (DPP-4) (Homo sapiens (Human), UniProt P27487); test: continuous fluorometric assay with substrate Gly-Pro-AMC (DPP-4 inhibition); type: biochemical; settings: soluble human DPP-4, 50 μM Gly-Pro-AMC, pH 7.5, room temperature
Procedure: Inhibition constants are determined as follows. A continuous fluorometric assay is employed with the substrate Gly-Pro-AMC, which is cleaved by DPP-4 to release the fluorescent AMC leaving group. […] A typical reaction contains approximately 50 pM enzyme, 50 μM Gly-Pro-AMC, and buffer (100 mM HEPES, pH 7.5, 0.1 mg/ml BSA) in a total reaction volume of 100 μL. Liberation of AMC is monitored continuously in a 96-well plate fluorometer using an excitation wavelength of 360 nm and an emission wavelength of 460 nm. Under these conditions, approximately 0.8 μM AMC is produced in 30 minutes at 25 degrees C. The enzyme used in these studies was soluble (transmembrane domain and cytoplasmic extension excluded) human protein produced in a baculovirus expression system (Bac-To-Bac, Gibco BRL). […] To measure the dissociation constants for compounds, solutions of inhibitor in DMSO were added to reactions containing enzyme and substrate (final DMSO concentration is 1%). All experiments were conducted at room temperature using the standard reaction conditions described above. To determine the dissociation constants (Ki), reaction rates were fit by non-linear regression to the Michaelis-Menton equation for competitive inhibition.

cardiac allograft = settings: rats; survival doubled from day 7; cited from earlier work
hematopoiesis = settings: mouse, cyclophosphamide-induced neutropenia; cited from earlier work
DPP-4 = DPP-4 (Homo sapiens (Human), UniProt P27487); settings: cited from earlier work
DPP-4, sequence (P27487 39-766, species assumed): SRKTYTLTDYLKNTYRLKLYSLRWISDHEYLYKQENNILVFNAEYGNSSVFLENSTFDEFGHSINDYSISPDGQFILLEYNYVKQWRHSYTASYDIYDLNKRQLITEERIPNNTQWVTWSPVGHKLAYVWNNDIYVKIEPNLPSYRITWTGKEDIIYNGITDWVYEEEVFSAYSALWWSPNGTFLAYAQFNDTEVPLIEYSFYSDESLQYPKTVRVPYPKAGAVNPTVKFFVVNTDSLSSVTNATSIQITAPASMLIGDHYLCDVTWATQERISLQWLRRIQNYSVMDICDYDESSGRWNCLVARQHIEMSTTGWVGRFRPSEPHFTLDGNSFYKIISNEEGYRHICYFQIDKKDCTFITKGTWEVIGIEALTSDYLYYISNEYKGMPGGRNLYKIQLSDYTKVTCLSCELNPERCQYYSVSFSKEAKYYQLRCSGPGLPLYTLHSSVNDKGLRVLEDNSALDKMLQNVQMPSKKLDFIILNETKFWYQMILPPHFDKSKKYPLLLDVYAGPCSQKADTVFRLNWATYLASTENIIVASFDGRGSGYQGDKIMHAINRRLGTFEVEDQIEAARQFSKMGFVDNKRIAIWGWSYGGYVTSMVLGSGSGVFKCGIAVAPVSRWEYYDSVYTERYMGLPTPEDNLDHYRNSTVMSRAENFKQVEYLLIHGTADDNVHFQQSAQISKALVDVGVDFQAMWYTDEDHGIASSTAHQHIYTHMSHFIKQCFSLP

dipeptidyl peptidase-IV enzyme (DPP-4), sequence (P27487 29-766): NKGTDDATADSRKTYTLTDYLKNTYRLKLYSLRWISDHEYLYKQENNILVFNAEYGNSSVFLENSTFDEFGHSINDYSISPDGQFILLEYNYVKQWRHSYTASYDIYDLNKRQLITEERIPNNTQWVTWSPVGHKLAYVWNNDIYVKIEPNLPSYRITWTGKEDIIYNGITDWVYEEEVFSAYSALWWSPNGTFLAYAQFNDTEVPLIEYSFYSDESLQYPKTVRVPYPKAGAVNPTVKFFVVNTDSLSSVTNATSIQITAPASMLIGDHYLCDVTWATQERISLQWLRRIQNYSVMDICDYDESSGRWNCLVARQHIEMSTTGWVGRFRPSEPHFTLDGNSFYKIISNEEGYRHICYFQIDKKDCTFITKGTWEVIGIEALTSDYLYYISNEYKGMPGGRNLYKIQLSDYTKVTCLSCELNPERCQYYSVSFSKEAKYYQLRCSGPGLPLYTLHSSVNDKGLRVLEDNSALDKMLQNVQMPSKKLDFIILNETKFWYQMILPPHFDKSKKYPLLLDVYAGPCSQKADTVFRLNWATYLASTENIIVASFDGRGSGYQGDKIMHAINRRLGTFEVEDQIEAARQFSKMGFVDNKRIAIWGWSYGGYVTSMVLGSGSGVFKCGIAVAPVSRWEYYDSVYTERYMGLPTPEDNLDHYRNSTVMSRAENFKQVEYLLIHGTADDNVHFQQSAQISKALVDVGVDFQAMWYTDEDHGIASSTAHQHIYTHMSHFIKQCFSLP

Row | IC50 [1] | SMILES | also measured
1 | 18.5 nM | Cc1ccc(S(=O)(=O)N=S(C)(=O)n2cc3c(n2)CN([C@H]2CO[C@H](c4cc(F)ccc4F)[C@@H](N)C2)C3)cc1 (stereo partly drawn) [Example 1] | 
2 | 37 nM | C[C@]1(N2Cc3cn(S(C)(=O)=O)nc3C2)CO[C@H](c2cc(F)ccc2F)[C@@H](N)C1 [Example 3] | 
3 | 8.8 nM | C[C@]1(N2Cc3cn(S(=O)(=O)NC(=O)OCc4ccccc4)nc3C2)CO[C@H](c2cc(F)ccc2F)[C@@H](N)C1 [Example 4] | 
4 |  | CC(C)N1CCC(c2ccccc2)(c2ccccc2)CC1 [Prodipine, Pro-Pro-diphenyl-phosphonate] | cardiac allograft survival (cardiac allograft): 14 day
5 |  | CC(C)[C@H](N)C(=O)N1CCC[C@H]1B(O)O [Val-Boro-Pro] | hematopoiesis (hematopoiesis): stimulated hematopoiesis
6 |  | CC[C@H](C)[C@H](N)C(=O)N1CCC[C@H]1C(=O)N[C@H](C(=O)O)[C@@H](C)CC [diprotin A] | degradation of GRF to GRF[3-44] in plasma (DPP-4): prevented
